What was measured:
[1] = tested on: reserpine-induced ptosis; assay: Protection against reserpine-induced ptosis in mice; type: in vivo; conditions: 60 mg/kg intraperitoneal, 30 minutes before 2.5 mg/kg reserpine subcutaneous, graded after 45 minutes
Experimental: A similar group of mice serving as controls were injected only with the carrier. After 30 minutes, both groups of mice were injected subcutaneously with 2.5 mg/kg of reserpine. […] Animals injected with the benzotriazepine compound were graded after 45 minutes on the following basis: no ptosis = 0, partial ptosis = 1, complete ptosis = 2.

[2] = tested on: serotonin uptake in synaptosome preparations; assay: Uptake of serotonin in rat forebrain synaptosome preparations; type: biochemical, rats; conditions: 10 μg/ml, 37° C., rat forebrain synaptosomes, versus saline control; low values indicate activity
Experimental: (§1) Antidepressant activity may also be illustrated in vitro by measuring the uptake of the neurotransmittors norepinephrine and serotonin in synaptosome preparations prepared from the forebrains of rats. The synaptosome preparation is incubated at 37° C. with radioactive neurotransmittor and the test compound at a concentration of 10 μg/ml. The synaptosome are isolated and the uptake of labelled neurotransmittor measured by liquid scintillation spectrometry using standard techniques. Percent inhibiton of uptake is determined by comparing the radioactivity taken in the synaptosome preparation with that of a similarly incubated saline control. Low values indicate activity.

[3] = tested on: norepinephrine uptake in synaptosome preparations; assay: Uptake of norepinephrine in rat forebrain synaptosome preparations; type: biochemical, rats; conditions: 10 μg/ml, 37° C., rat forebrain synaptosomes, versus saline control; low values indicate activity
Experimental: as §1

[4] = tested on: stress induced rise of serum corticosteroid levels; assay: Block of stress induced rise of serum corticosteroid levels in rats; type: in vivo; conditions: 10 mg/kg intraperitoneal, stressed male rats; values less than 1.0 indicative of activity
Experimental: See British Medical Journal, 1971(2), p. 310-313. Corticosteroid levels were compared between stressed male rats pretreated with 10 mg/kg given by intraperitoneal injection to corticosteroid levels of stressed male rats pretreated with saline. The results were expressed as a ratio with values less than 1.0 indicative of activity. The compound 6-chloro-3,4-dihydro-4-hydroxy-3-(3-(4-morpholinyl)propyl)-4-phenyl-2(1H)- quinazolinethione (Example 12) gave a value of 0.12.

6-chloro-3-(3-dimethylamino)propyl-3,4-dihydro-4-hydroxy-4-phenyl-2(1H)-quinazolinethione [Example 7]
sum of ptosis grades for the four test mice (no ptosis = 0, partial = 1, complete = 2; out of a possible 8) ([1]; controls 8): 4
protection against reserpine-induced ptosis ([1]; four mice): 50%

CCN(CC)CCN1C(=S)Nc2ccc(Cl)cc2C1(O)c1ccccc1 (centres unmarked) [Example 8]
inhibition of seratonin uptake [2]: 7%
norepinephrine uptake relative to saline control [3]: 3%

OC1(c2ccccc2)c2cc(Cl)ccc2NC(=S)N1CCCN1CCOCC1 (centres unmarked) [Example 12, 6-chloro-3,4-dihydro-4-hydroxy-3-(3-(4-morpholinyl)propyl)-4-phenyl-2(1H)-quinazolinethione]
ratio of corticosteroid levels, stressed rats pretreated with compound to stressed rats pretreated with saline [4]: 0.12

— patent publication US4127572A, “Method of using 2(1H)-quinazolinethiones” (The Dow Chemical Company, priority 1978, dated 1978)
